Laboratory results published in patent US20140316119A1, “COMPOSITION FOR IMPROVING BIOMETABOLISM PARAMETER” (MATSUTANI CHEMICAL INDUSTRY CO., LTD., priority 2011, published 2014).

Experiments:
[1] = system: γ-GTP, ALT, ALP, and a uric acid level; assay: Clinical trial, 12-week D-psicose ingestion (Example 1); type: in vivo, human
Experimental: Increasing incidence of lifestyle-related diseases, diabetes in particular, has been a problem in Japan. Clinical trials were conducted with recruited diabetic subjects, and biometabolism parameter changes due to D-psicose were investigated. The recruited subjects consisted of diabetes borderline subjects (12 subjects with fasting glucose levels of 110 to 126 mg/dl), and diabetes patients (6 type 2 diabetes patients undergoing drug treatment) (all subjects, males and females, were at least 20 years of age at the time of informed consent). Five grams of D-psicose was ingested per meal for 12 weeks. The D-psicose was purchased from Izumoring Co., Ltd. The subjects were tested after 0, 2, 4, 8, and 12 weeks from the start of the ingestion, and after 4 weeks from the end of the ingestion period (week 16, post-ingestion observation). The subjects were fasted after the dinner served on the day before the testing date. The subjects were measured for γ-GTP, ALT, ALP, and a uric acid level using the service of BML Inc. A paired t-test was used for statistical comparison before and after the ingestion. In the figure, significant difference is given by *:0.05<P or **:0.01<P.

[2] = oral ingestion, cited from earlier work
[3] = system: γ-GTP, ALT, and ALP; assay: Four-week D-psicose ingestion tests (Example 2); type: in vivo, human; details: 15 g once per day, after 2 weeks
Experimental: Four-week D-psicose ingestion tests were conducted with recruited healthy individuals (8 individuals with a […]) and diabetes borderline subjects (6 individuals with fasting glucose levels of 110 to 126 mg/dl, or HbA1c of 5.9 to 6.5%) (all subjects, males and females, were at least 20 years of age at the time of informed consent). Each subject ingested 15 g of D-psicose once per day. The D-psicose was purchased from Izumoring Co., Ltd. The subjects were tested after 0, 2, and 4 weeks from the start of the ingestion, and after 4 weeks from the end of the ingestion period (week 8, post-ingestion observation). The subjects were fasted after the dinner served on the day before the testing date. The subjects were measured for γ-GTP, ALT, and ALP by using the service of BML Inc. A paired t-test was used for statistical comparison before and after the ingestion. In the figure, significant difference is given by *:0.05<P or **:0.01<P.

[4] = healthy individuals + diabetes borderline subjects
[5] = stratified: healthy individuals, P<0.01

O=C(CO)[C@H](O)[C@H](O)[C@H](O)CO [D-psicose]
significant decrease: ALP change ([1]; all subjects, 5 g D-psicose per meal, after 2 weeks from the ingestion) | uric acid level change ([1]; all subjects, 5 g per meal, after two weeks from the ingestion) | uric acid level change ([1]; stratified: diabetes borderline patients, after 2 weeks) | γ-GTP change ([1]; stratified: diabetes borderline patients, after 4 weeks, P<0.01) | γ-GTP change ([1]; stratified: diabetes patients, after 8 weeks, P<0.01) | ALP change [3, 5] | γ-GTP change [3, 5]
significantly decreased: γ-GTP change ([1]; all subjects (diabetes borderline + diabetes patients), 5 g D-psicose per meal, after 4 weeks from the ingestion, paired t-test vs before ingestion) | ALP change ([1]; stratified: diabetes borderline patients, after 2 weeks, P<0.05) | ALP change ([1]; stratified: diabetes patients, after 2 weeks, P<0.05) | ALP change [3, 4] | ALT change [3, 4] | γ-GTP change [3, 4]
70%: share of ingested D-psicose directly absorbed but excreted into urine [2]
30%: share of ingested D-psicose that reaches the large intestine, excreted into feces ([2]; essentially not utilized by enteric bacteria)
lack of significant decrease: ALT change ([1]; 5 g per meal for 12 weeks)
